# Data as given in ChEMBL document CHEMBL4118098, “Discovery of DS28120313 as a potent orally active hepcidin production inhibitor: Design and optimization of novel 4,6-disubstituted indazole derivatives” (Bioorg Med Chem Lett, 2017).
# Test system: HepG2
# Assay: Inhibition of human recombinant BMP6-stimulated hepcidin mRNA expression in human HepG2 cells after 6 hrs by qRT-PCR analysis
# Format: functional, cell-based
# Details: HepG2, 6 h
row,SMILES,IC50
1,COC(=O)Nc1cc(-c2c(C(=O)O)n[nH]c2C)cc2[nH]ncc12,> 10 µM
2,Cc1[nH]nc(C2CC2)c1-c1ccc2c(-c3cccnc3)n[nH]c2c1,2.3 µM
3,Cc1[nH]nc(C2CC2)c1-c1cc(NC(=O)c2ccc(N3CCN(C)CC3)cc2)c2cn[nH]c2c1,1.9 µM
4,COC(=O)N(C)c1cc(-c2c(C3CC3)n[nH]c2C)cc2[nH]ncc12,3 µM
5,COCc1n[nH]c(C)c1-c1cc(NC(=O)OC)c2cn[nH]c2c1,3.9 µM
6,Cc1[nH]nc(C2CC2)c1-c1ccc2c(-c3ccncc3)n[nH]c2c1,2.6 µM
7,CCOC(=O)Nc1cc(-c2c(C3CC3)n[nH]c2C)cc2[nH]ncc12,0.66 µM
8,Cc1[nH]nc(C2CC2)c1-c1ccc2cn[nH]c2c1,4.1 µM
9,Cc1[nH]nc(C2CC2)c1-c1ccc2c(-c3ccc[nH]3)n[nH]c2c1,3.1 µM
10,CNC(=O)c1n[nH]c(C)c1-c1cc(NC(=O)OC)c2cn[nH]c2c1,2 µM
11,COC(=O)Nc1cc(-c2c(-c3ccccc3)n[nH]c2C)cc2[nH]ncc12,1.1 µM
12,CNC(=O)c1cc(-c2c(C3CC3)n[nH]c2C)cc2[nH]ncc12,2.2 µM
13,Cc1[nH]nc(C2CC2)c1-c1cc(NS(C)(=O)=O)c2cn[nH]c2c1,1.2 µM
14,Cc1[nH]nc(C2CC2)c1-c1cc(NC(=O)C2CC2)c2cn[nH]c2c1,1 µM
15,Cc1[nH]nc(C2CC2)c1-c1cc(N)c2cn[nH]c2c1,2.7 µM

# Now those with a lower IC50, led by results:
row,IC50,SMILES
1,0.45 µM,CCC(=O)Nc1cc(-c2c(C3CC3)n[nH]c2C)cc2[nH]ncc12
2,0.18 µM,CCc1n[nH]c(C)c1-c1cc(NC(=O)OC)c2cn[nH]c2c1
3,0.17 µM,Cc1[nH]nc(C2CC2)c1-c1ccc2c(-c3ccc(N4CCNCC4)nc3)n[nH]c2c1
4,0.41 µM,CC(=O)Nc1n[nH]c2cc(-c3c(C4CC4)n[nH]c3C)ccc12
5,0.19 µM,COC(=O)Nc1cc(-c2c(C(C)C)n[nH]c2C)cc2[nH]ncc12
6,0.19 µM,CC(=O)Nc1cc(-c2c(C3CC3)n[nH]c2C)cc2[nH]ncc12
7,0.34 µM,CNC(=O)Nc1cc(-c2c(C3CC3)n[nH]c2C)cc2[nH]ncc12
8,0.13 µM,COC(=O)Nc1cc(-c2c(C(=O)OC)n[nH]c2C)cc2[nH]ncc12
9,0.15 µM,COC(=O)Nc1cc(-c2c(C)n[nH]c2C)cc2[nH]ncc12
10,0.32 µM,COC(=O)Nc1cc(-c2c(-c3ccccn3)n[nH]c2C)cc2[nH]ncc12
